This passage reports CD117-resistant mutants obtained results from PMC4527344 (Tetrahedron letters, 2015).

The subject of this experiment is M. tuberculosis.

In the case of `CCOC(=O)CSc1nc(N)c2c3c(sc2n1)CC(C(C)(C)C)CC3` (stereo not shown) [CD117], the CD117-resistant mutants obtained entry is recorded as “unable to obtain CD117-resistant mutants”.
